In ChEMBL document CHEMBL1201862, “PubChem BioAssay data set” (2004):
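Each compound was tested at five concentrations against cells in 96-well plates for 48 hours. GI50 is the concentration that inhibits growth by half.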 The source made the active and inactive calls. No stated cut-off is given here; in the data, active = GI50 up to about 1.1 µM and inactive = higher.

Legend:
Assay in all cases: DTP human tumour cell line panel, 48 h
[1] = system: LOX IMVI
[2] = system: PC-3
[3] = system: MDA-N
[4] = system: CAKI-1
[5] = system: RXF 393
[6] = system: Malme-3M
[7] = system: SF-539
[8] = system: OVCAR-5
[9] = system: SW-620
[10] = system: SK-OV-3
[11] = system: SK-MEL-5
[12] = system: OVCAR-4
[13] = system: IGROV-1
[14] = system: HCC 2998
[15] = system: HCT-15
[16] = system: SNB-19
[17] = system: HT-29
[18] = system: NCI/ADR-RES
[19] = system: UACC-62
[20] = system: OVCAR-3
[21] = system: M14
[22] = system: ACHN
[23] = system: NCI-H460
[24] = system: K562
[25] = system: NCI-H226
[26] = system: MDA-MB-231
[27] = system: MDA-MB-435
[28] = system: OVCAR-8
[29] = system: COLO 205
[30] = system: DU-145
[31] = system: A498
[32] = system: SF-295
[33] = system: MCF7
[34] = system: A549
[35] = system: HOP-62
[36] = system: 786-0
[37] = system: SN12C
[38] = system: NCI-H522
[39] = system: HL-60
[40] = system: NCI-H23
[41] = system: KM12
[42] = system: TK-10
[43] = system: SNB-75
[44] = system: UACC-257
[45] = system: CCRF-CEM
[46] = system: EKVX
[47] = system: RPMI-8226
[48] = system: U-251
[49] = system: HCT-116
[50] = system: SR
[51] = system: MOLT-4
[52] = system: Hs-578T
[53] = system: HOP-92
[54] = system: SK-MEL-28
[55] = system: SF-268
[56] = system: SK-MEL-2
[57] = system: UO-31
[58] = system: T47D

O=C1C[C@H]2[C@H](c3ccc(Br)cc3)[C@H]3C(=O)c4ccccc4NC(=O)[C@@H]3[C@@]2(O)c2ccccc2N1
GI50 [1]: 13.8 µM (inactive)
GI50 [2]: 8.15 µM (inactive)
GI50 [3]: 17.1 µM (inactive)
GI50 [4]: 5.85 µM (inactive)
GI50 [5]: 3.48 µM (inactive)
GI50 [6]: 19.7 µM (inactive)
GI50 [7]: 19.5 µM (inactive)
GI50 [8]: 27.2 µM (inactive)
GI50 [9]: 19.7 µM (inactive)
GI50 [10]: 21 µM (inactive)
GI50 [11]: 19.3 µM (inactive)
GI50 [12]: 12.5 µM (inactive)
GI50 [13]: 8.22 µM (inactive)
GI50 [14]: 11.7 µM (inactive)
GI50 [15]: 27.9 µM
GI50 [16]: 38.2 µM (inactive)
GI50 [17]: 10.7 µM (inactive)
GI50 [18]: 14.9 µM (inactive)
GI50 [19]: 24.8 µM (inactive)
GI50 [20]: 10.6 µM (inactive)
GI50 [21]: 12.3 µM (inactive)
GI50 [22]: 11.2 µM (inactive)
GI50 [23]: 25.5 µM (inactive)
GI50 [24]: 12 µM (inactive)
GI50 [25]: 14.4 µM (inactive)
GI50 [26]: 14.4 µM (inactive)
GI50 [27]: 10 µM (inactive)
GI50 [28]: 19 µM (inactive)
GI50 [29]: 14.8 µM (inactive)
GI50 [30]: 24 µM (inactive)
GI50 [31]: 8.34 µM (inactive)
GI50 [32]: 24 µM (inactive)
GI50 [33]: 11.1 µM (inactive)
GI50 [34]: 11.6 µM (inactive)
GI50 [35]: 19.6 µM (inactive)
GI50 [36]: 19.4 µM (inactive)
GI50 [37]: 24.5 µM (inactive)
GI50 [38]: 12.1 µM (inactive)
GI50 [39]: 3.09 µM (inactive)
GI50 [40]: 10.4 µM (inactive)
GI50 [41]: 11.7 µM (inactive)
GI50 [42]: 17.1 µM (inactive)
GI50 [43]: 4.53 µM (inactive)
GI50 [44]: 20.2 µM (inactive)
GI50 [45]: 10.6 µM (inactive)
GI50 [46]: 48.6 µM (inactive)
GI50 [47]: 9.82 µM (inactive)
GI50 [48]: 22.1 µM (inactive)
GI50 [49]: 12.3 µM (inactive)
GI50 [50]: 7.41 µM (inactive)
GI50 [51]: 3.94 µM (inactive)
GI50 [52]: 48 µM (inactive)
GI50 [53]: < 0.01 µM (active)
GI50 [54]: 26.5 µM (inactive)
GI50 [55]: 19.1 µM (inactive)

O=[N+]([O-])/C(C(Cl)=C(Cl)Cl)=C1\Nc2ccccc2O1
GI50 [1]: > 100 µM (inactive)
GI50 [2]: 70.5 µM (inactive)
GI50 [3]: 45.4 µM (inactive)
GI50 [4]: > 100 µM (inactive)
GI50 [5]: > 100 µM (inactive)
GI50 [6]: 27.9 µM (inactive)
GI50 [7]: 19.9 µM (inactive)
GI50 [8]: > 100 µM (inactive)
GI50 [9]: > 100 µM (inactive)
GI50 [10]: > 100 µM (inactive)
GI50 [56]: > 100 µM (inactive)
GI50 [11]: > 100 µM (inactive)
GI50 [12]: 33.8 µM (inactive)
GI50 [13]: 43.7 µM (inactive)
GI50 [14]: > 100 µM (inactive)
GI50 [15]: > 100 µM
GI50 [16]: > 100 µM (inactive)
GI50 [17]: > 100 µM (inactive)
GI50 [19]: 9.16 µM (inactive)
GI50 [20]: 23.4 µM (inactive)
GI50 [21]: > 100 µM (inactive)
GI50 [22]: 35.8 µM (inactive)
GI50 [23]: > 100 µM (inactive)
GI50 [57]: 14.5 µM (inactive)
GI50 [24]: > 100 µM (inactive)
GI50 [25]: 27.5 µM (inactive)
GI50 [26]: 44.3 µM (inactive)
GI50 [27]: 36.6 µM (inactive)
GI50 [28]: 25.2 µM (inactive)
GI50 [29]: 60.1 µM (inactive)
GI50 [30]: > 100 µM (inactive)
GI50 [31]: > 100 µM (inactive)
GI50 [32]: > 100 µM (inactive)
GI50 [33]: 40.2 µM (inactive)
GI50 [34]: 37.7 µM (inactive)
GI50 [35]: 47.4 µM (inactive)
GI50 [36]: 17 µM (inactive)
GI50 [37]: 45.9 µM (inactive)
GI50 [38]: 27.2 µM (inactive)
GI50 [39]: 28.8 µM (inactive)
GI50 [40]: 67.3 µM (inactive)
GI50 [41]: 90.6 µM (inactive)
GI50 [42]: > 100 µM (inactive)
GI50 [43]: 15.7 µM (inactive)
GI50 [44]: > 100 µM (inactive)
GI50 [45]: 19.5 µM (inactive)
GI50 [46]: > 100 µM (inactive)
GI50 [58]: > 100 µM (inactive)
GI50 [47]: 24.3 µM (inactive)
GI50 [48]: > 100 µM (inactive)
GI50 [49]: 51.6 µM (inactive)
GI50 [50]: 24.9 µM (inactive)
GI50 [51]: 29.6 µM (inactive)
GI50 [52]: 32.3 µM (inactive)
GI50 [53]: 12 µM (inactive)
GI50 [54]: > 100 µM (inactive)
GI50 [55]: > 100 µM (inactive)
